# BigSolDB 2.1
compound,measurement,setting,value
O=C1c2ccccc2-c2ccccc21,solubility (mole fraction),"in DMSO, 278.15 K",0.0418
same,solubility (mole fraction),"in DMSO, 283.15 K",0.0609
same,solubility (mole fraction),"in DMSO, 288.15 K",0.0728
same,solubility (mole fraction),"in DMSO, 293.15 K",0.0855
same,solubility (mole fraction),"in DMSO, 298.15 K",0.112
same,solubility (mole fraction),"in DMSO, 303.15 K",0.142
same,solubility (mole fraction),"in DMSO, 308.15 K",0.178
same,solubility (mole fraction),"in DMSO, 313.15 K",0.216
same,solubility (mole fraction),"in DMSO, 318.15 K",0.306
same,solubility (mole fraction),"in acetonitrile, 278.15 K",0.0209
same,solubility (mole fraction),"in acetonitrile, 283.15 K",0.0311
same,solubility (mole fraction),"in acetonitrile, 288.15 K",0.0481
same,solubility (mole fraction),"in acetonitrile, 293.15 K",0.0657
same,solubility (mole fraction),"in acetonitrile, 298.15 K",0.102
same,solubility (mole fraction),"in acetonitrile, 303.15 K",0.134
same,solubility (mole fraction),"in acetonitrile, 308.15 K",0.201
same,solubility (mole fraction),"in acetonitrile, 313.15 K",0.281
same,solubility (mole fraction),"in acetonitrile, 318.15 K",0.358
same,solubility (mole fraction),"in ethanol, 278.15 K",0.0127
same,solubility (mole fraction),"in ethanol, 283.15 K",0.014
same,solubility (mole fraction),"in ethanol, 288.15 K",0.0164
same,solubility (mole fraction),"in ethanol, 293.15 K",0.0222
same,solubility (mole fraction),"in ethanol, 298.15 K",0.0267
same,solubility (mole fraction),"in ethanol, 303.15 K",0.0307
same,solubility (mole fraction),"in ethanol, 308.15 K",0.0428
same,solubility (mole fraction),"in ethanol, 313.15 K",0.0506
same,solubility (mole fraction),"in ethanol, 318.15 K",0.0693
same,solubility (mole fraction),"in ethyl acetate, 278.15 K",0.105
same,solubility (mole fraction),"in ethyl acetate, 283.15 K",0.137
same,solubility (mole fraction),"in ethyl acetate, 288.15 K",0.142
same,solubility (mole fraction),"in ethyl acetate, 293.15 K",0.172
same,solubility (mole fraction),"in ethyl acetate, 298.15 K",0.225
same,solubility (mole fraction),"in ethyl acetate, 303.15 K",0.243
same,solubility (mole fraction),"in ethyl acetate, 308.15 K",0.284
same,solubility (mole fraction),"in ethyl acetate, 313.15 K",0.35
same,solubility (mole fraction),"in ethyl acetate, 318.15 K",0.371
same,solubility (mole fraction),"in ethyl formate, 278.15 K",0.0907
same,solubility (mole fraction),"in ethyl formate, 283.15 K",0.111
same,solubility (mole fraction),"in ethyl formate, 288.15 K",0.14
same,solubility (mole fraction),"in ethyl formate, 293.15 K",0.163
same,solubility (mole fraction),"in ethyl formate, 298.15 K",0.22
same,solubility (mole fraction),"in ethyl formate, 303.15 K",0.25
same,solubility (mole fraction),"in ethyl formate, 308.15 K",0.32
same,solubility (mole fraction),"in ethyl formate, 313.15 K",0.366
same,solubility (mole fraction),"in ethyl formate, 318.15 K",0.409
same,solubility (mole fraction),"in isobutanol, 278.15 K",0.0156
same,solubility (mole fraction),"in isobutanol, 283.15 K",0.0207
same,solubility (mole fraction),"in isobutanol, 288.15 K",0.0241
same,solubility (mole fraction),"in isobutanol, 293.15 K",0.0305
same,solubility (mole fraction),"in isobutanol, 298.15 K",0.0387
same,solubility (mole fraction),"in isobutanol, 303.15 K",0.0504
same,solubility (mole fraction),"in isobutanol, 308.15 K",0.0622
same,solubility (mole fraction),"in isobutanol, 313.15 K",0.0745
same,solubility (mole fraction),"in isobutanol, 318.15 K",0.0963
same,solubility (mole fraction),"in isopropanol, 278.15 K",0.0087
same,solubility (mole fraction),"in isopropanol, 283.15 K",0.0119
same,solubility (mole fraction),"in isopropanol, 288.15 K",0.0152
same,solubility (mole fraction),"in isopropanol, 293.15 K",0.0217
same,solubility (mole fraction),"in isopropanol, 298.15 K",0.0273
same,solubility (mole fraction),"in isopropanol, 303.15 K",0.0384
same,solubility (mole fraction),"in isopropanol, 308.15 K",0.0472
same,solubility (mole fraction),"in isopropanol, 313.15 K",0.0592
same,solubility (mole fraction),"in isopropanol, 318.15 K",0.0801
same,solubility (mole fraction),"in methanol, 278.15 K",0.0037
same,solubility (mole fraction),"in methanol, 283.15 K",0.0044
same,solubility (mole fraction),"in methanol, 288.15 K",0.0059
same,solubility (mole fraction),"in methanol, 293.15 K",0.0084
same,solubility (mole fraction),"in methanol, 298.15 K",0.012
same,solubility (mole fraction),"in methanol, 303.15 K",0.0154
same,solubility (mole fraction),"in methanol, 308.15 K",0.0199
same,solubility (mole fraction),"in methanol, 313.15 K",0.0288
same,solubility (mole fraction),"in methanol, 318.15 K",0.0401
same,solubility (mole fraction),"in n-butanol, 278.15 K",0.0119
same,solubility (mole fraction),"in n-butanol, 283.15 K",0.0142
same,solubility (mole fraction),"in n-butanol, 288.15 K",0.0182
same,solubility (mole fraction),"in n-butanol, 293.15 K",0.0286
same,solubility (mole fraction),"in n-butanol, 298.15 K",0.0371
same,solubility (mole fraction),"in n-butanol, 303.15 K",0.0461
same,solubility (mole fraction),"in n-butanol, 308.15 K",0.0631
same,solubility (mole fraction),"in n-butanol, 313.15 K",0.0826
same,solubility (mole fraction),"in n-butanol, 318.15 K",0.113
same,solubility (mole fraction),"in n-hexane, 278.15 K",0.0038
same,solubility (mole fraction),"in n-hexane, 283.15 K",0.0047
same,solubility (mole fraction),"in n-hexane, 288.15 K",0.0054
same,solubility (mole fraction),"in n-hexane, 293.15 K",0.007
same,solubility (mole fraction),"in n-hexane, 298.15 K",0.0097
same,solubility (mole fraction),"in n-hexane, 303.15 K",0.0132
same,solubility (mole fraction),"in n-hexane, 308.15 K",0.0169
same,solubility (mole fraction),"in n-hexane, 313.15 K",0.0227
same,solubility (mole fraction),"in n-hexane, 318.15 K",0.0304
same,solubility (mole fraction),"in n-propanol, 278.15 K",0.0143
same,solubility (mole fraction),"in n-propanol, 283.15 K",0.0169
same,solubility (mole fraction),"in n-propanol, 288.15 K",0.0214
same,solubility (mole fraction),"in n-propanol, 293.15 K",0.0294
same,solubility (mole fraction),"in n-propanol, 298.15 K",0.0381
same,solubility (mole fraction),"in n-propanol, 303.15 K",0.0482
same,solubility (mole fraction),"in n-propanol, 308.15 K",0.0653
same,solubility (mole fraction),"in n-propanol, 313.15 K",0.083
same,solubility (mole fraction),"in n-propanol, 318.15 K",0.0997
